Earlier results as cited in publication PMC2574912 (Life sciences, 2008).

Assays:
[1] = tested on: non-AT1, non-AT2 binding site in rat brain; details: sulfhydryl reducing agents, ref Karamyan and Speth, 2007
[2] = tested on: AT-1 angiotensin receptor; details: presence of PCMB; ref Karamyan and Speth, 2007
AT2 receptor = details: PCMB; ref Karamyan, Speth unpublished observations

SMILES | Effect on binding of 125I-Ang II to the non-AT1, non-AT2 binding site [1] | Effect on AT1 receptor binding [2] | Effect on AT2 receptor binding (AT2 receptor)
O[C@@H](CS)[C@@H](O)CS (racemic) [dithiothreitol] | inhibit the binding | – | –
O=C(O)c1cc[c]([Hg][Cl])cc1 [PCMB, parachloromercuribenzoate] | – | inactivated | not inhibited
OCCS [β-mercaptoethanol] | inhibit the binding | – | –
